Laboratory results: patent US20050232891A1, “Methods of treating skin with diphosphonate derivatives” (ILEX Products Inc., priority 2001, published 2005)
Like-named read-outs stand apart in the source and are kept apart here.

Assays:
[1] = Percutaneous absorption of Apomine: plasma level after topical application; assay type: in vivo, female Swiss nude (nu/nu) mice; conditions: female, Swiss nude (nu/nu), mouse, three hours after the last application
Protocol: Plasma concentrations of Apomine are measured with a Hewlett Packard gas chromatograph using a nitrogen phosphorus detector and HP-5 15 m×0.32 mm column. Alberts et al., 2001). Apomine is extracted from plasma with methyl t-butyl ether (MTBE). To 250 μl of plasma sample, 10 μl of a methanolic solution of the internal standard (n-propyl phoposhonate analog of Apomine) at a final concentration of 4 μg/ml are added and mixed by vortexing. The compound and internal standard are extracted with 500 μl MTBE and 30 sec vigorous shaking. The organic layer obtained by centrifugation (5 min at 13,000 rpm) is dried under nitrogen and reconstituted in 250 μl MTBE of which 2 μl is injected with an autoampler for analysis. A calibration curve is established with plasma from untreated mice spiked with different concentrations of Apomine. The calibration curve is used to interpolate the concentrations of Apomine in the samples using the peak area ratio values.
Apomine (1 mg) was topically applied to five to six week old female Swiss nude (nu/nu) mice by application of 20 μl of a 50 mg/ml solution of Apomine in acetone. Treatment was continued daily for 24 days. Three hours after the last application the mice were sacrificed and plasma Apomine levels were measured. The plasma concentration was 1.12±0.10 μg/ml plasma (n=6), which is 2 μM Apomine. […]

[2] = patients, 75 mg/m^2 twice a day orally for 14 days; cited from earlier work
[3] = tested on: HepG2 cells; assay: Stimulation of collagen expression (cDNA microarray), Apomine treated versus control HepG2 cells; assay type: cell-based, human; conditions: gene expression; for fold induction at 1 µM: Homo sapiens, HepG2, 1 μM Apomine vs ethanol vehicle control
Protocol: HepG2 cells were grown in Dulbecco's modified Eagle medium (DMEM) supplemented with 10% FBS. Cells were harvested when they were about 80-90% confluent and were directly subjected to RNA isolation. Treated cells were incubated with 1 μM Apomine and control cells were incubated with a volume of ethanol used as vehicle for the Apomine.
DNA microarray slides used in this study were fabricated in the microarray core facilities at the Arizona Cancer Center (Calaluce et al., 2001). Each slide has 5760 spots divided into 4 blocks. Each block contains the same 8 ice plant genes from Mesembryanthemum crystallinum and 23 different housekeeping genes as references for data normalization. Overall, each slide has 5289 unique human cDNA sequences.
Poly(A)^+ RNA was directly isolated from cell pellets using the FastTrack 2.0 Kit (Invitrogen, Carsbad, Calif.) following the instruction manual provided by the manufacturer. Each RNA sample was inspected by denaturing agarose gel electrophoresis to ensure the quality of the preparation. Labeling and purification of cDNA probes were carried out using the MICROMAX direct cDNA microarray system (NEN Life Science Products, Boston, Mass.). Two to four micrograms of the poly(A)+ RNA samples were used for each labeling. Probes for Apomine treated HepG2 cells were labeled with Cyanine 5 (Cy5) and probes for HeLa cell was labeled with Cyanine 3 (Cy3). For investigation of control Hep2G cells, these cells were labeled with Cy3 and probes for HeLa cells were labeled with Cy5. Purified cDNA probes were dried and dissolved in 15 μL of Hybridization Buffer (included in the MICROMAX direct cDNA microarray system kit). The probes were then denatured by heating at 95° C. for 2 min and applied to the array area of a pre-denatured microarray slide. The microarray slide was covered with a […] slide cover slip and incubated in a HybChamber (GeneMachines, San Carlos, Calif.) at 62° C. for overnight. On the second day, the slide was washed in 0.5×SSC, 0.01% SDS for 5 min, 0.06×SSC, 0.01% SDS for 5 min, and 0.06×SCC for 2 min. Finally, the slide was dried by spinning at 500 g for 1 min and scanned in a dual-laser (635 nm for red fluorescent Cy5 and 532 nM for green fluorescent Cy3) microarray scanner (GenePix 4000, Axon Instruments, Foster City, Calif.).
Fluorescence intensities for both dyes (Cy3 and Cy5) and local background subtracted values for individual spots were obtained using the GenePix 4000 microarray scanner and accompanying software (Axon Instruments, Foster City, Calif.). The data were imported into Microsoft Excel spreadsheets for analysis. Defective spots, i.e., ones that are sub-standard on the scanned image or have negative background subtracted values, were first filtered. To minimize the effects of measurement variations introduced by artificial sources during experiments, only spots that had significant signals in both channels were included. The determination of this significance is based on signal intensities of non-homologous ice plant genes. Generally, if the signal intensity of a spot is less than the average of ice plant spots, the signal was considered as non-significant. In this analysis the significance cutoff for signal to background ratio as 1.4 was determined empirically. Thus, a spot was excluded in further analysis if it has a signal to background ratio less than 1.4 in both channels. For each spot, the median of ratios (the median of the pixel-by-pixel ratios of pixel intensities that have the median background intensity subtracted) was used in subsequent analysis. Spots representing housekeeping genes were used to normalize the entire slide so that all slides can be compared directly. For each pancreatic cell line, at least two hybridizations were carried out. The average of median ratios from replicates was calculated for each spot. […]

SMILES: CC(C)OP(=O)(OC(C)C)C(Cc1cc(C(C)(C)C)c(O)c(C(C)(C)C)c1)P(=O)(OC(C)C)OC(C)C [Apomine, tetraisopropyl 2-(3,5-di-tert-butyl-4-hydroxyphenyl)-ethylidene-1,1-diphosphonate]
- concentration at 3 h ([1]; 1 mg topically (20 μl of 50 mg/ml in acetone) daily for 24 days, n=6): 1120 ± 100 ng/mL
- concentration at 3 h ([1]; 1 mg topically daily for 24 days): 2000 nM
- adverse effects [2]: no adverse effects
- Fold induction, Procollagen, type III ([3]; 1 μM Apomine vs ethanol vehicle control): 6.49 fold
- fold induction at 1 µM ([3]; read-out: Fold induction, Collagen, type I, alpha 2): 1.65
- fold induction at 1 µM ([3]; read-out: Fold induction, Collagen, type II, alpha 1): 5.5
- fold induction at 1 µM ([3]; read-out: Fold induction, Collagen, type IV, alpha 4): 1.7
- fold induction at 1 µM ([3]; read-out: Fold induction, Collagen, type IX, alpha 3): 1.4
- fold induction at 1 µM ([3]; read-out: Fold induction, Collagen, type V, alpha 1): 1.42
- fold induction at 1 µM ([3]; read-out: Fold induction, Collagen, type VI, alpha 2): 2.4
- fold induction at 1 µM ([3]; read-out: Fold induction, Collagen, type VI, alpha 3): 1.16
- fold induction at 1 µM ([3]; read-out: Fold induction, Collagen, type XI, alpha 1): 2.66
- fold induction at 1 µM ([3]; read-out: Fold induction, Procollagen, type III): > 6
